From ChEMBL document CHEMBL1148038, “Inhibition of Botrytis cinerea by New Sesquiterpenoid Compounds Obtained from the Rearrangement of Isocaryophyllene” (1994)
Active and inactive are the calls of the source. No cut-off for these calls is given here.

How the values were obtained:
Botrytis cinerea [1] = experiment: Antifungal activity against Botrytis cinerea at 100 ppm for 3 days by centerpoint incubation disk assay; assay type: functional, organism-based
Botrytis cinerea [2] = experiment: Antifungal activity against Botrytis cinerea at 130 ppm for 5 days by centerpoint incubation disk assay; assay type: functional; conditions: 120 h, read-out: IZ
Botrytis cinerea [3] = experiment: Antifungal activity against Botrytis cinerea by centerpoint incubation disk assay; assay type: functional, organism-based
Botrytis cinerea [4] = experiment: Antifungal activity against Botrytis cinerea at 17 ppm for 3 days by centerpoint incubation disk assay; assay type: functional; conditions: 72 h, read-out: IZ

SMILES | Activity (Botrytis cinerea [1]) | zone of inhibition at 130 ppm (Botrytis cinerea [2]) [mm] | Activity (Botrytis cinerea [3]) | zone of inhibition at 17 ppm (Botrytis cinerea [4]) [mm]
CC1(C)C[C@@]2(O)[C@]3(C)CCC[C@@]2(C)[C@H]1CC3 [ACETYLGINSENOL] | Active | 6 | – | –
CC1=CC[C@@H]2[C@H]3[C@@H]1CC[C@@]3(C)CC2(C)C | – | – | inactive | –
CC1(C)C[C@@]2(C)CCC[C@]3(C)CC[C@@H]1[C@]32O | Active | – | – | 20
